Test results reported in patent US11344534B2, “Cholinergic agonism for the treatment of pancreatic cancer” (priority 2017, dated 2022).
“Also recorded” adds a separate entry of the source. Where two headings read alike, the source gives them in different places.

Experiments:
KC mice = assay: Vagotomized KC mice (KC+VxPP) treated with bethanechol in drinking water; type: in vivo, mouse; details: for pancreatic tumor (PDAC) incidence: bethanechol 400 μg/ml in drinking water, at 20 weeks; for pancreatic CD44 expression: bethanechol vs KC+VxPP controls, immunostaining
Experimental: Thus, KC mice that underwent vagotomy treated with or without Bethanechol, a broad muscarinic agonist, were compared. Bethanechol treatment (400 μg/ml) started immediately after receiving surgery and continued till 20 weeks.
K-Ras^+/LSL-G12D, p53^+/R172H, and Pdx-1-Cre mice were provided by Dr. Kenneth Olive (Columbia University). M1RKO mice were purchased from the Jackson Laboratory. KC mice and KPC mice were crossed with M1RKO mice. For several experiments, KC mice received pyloroplasty with or without vagotomy at 8 weeks and KC+VxPP mice were treated with or without bethanechol (400 μg/ml) after surgery immediately. They were sacrificed at 20 weeks. In addition, KPC mice were treated with gemcitabine biweekly and with or without bethanechol when the tumor size of 3-5 mm detected using ultrasound. They were sacrificed when the mice were moribund. For liver metastatic experiments, WT type C57/B6 mice received spleen injection and hemi-splenectomy. […] They were sacrificed when the mice were moribund.
Bethanechol treatment (400 μg/ml in drinking water) was started in KC mice at 8 weeks, immediately after the mice received surgery, and continued until 20 weeks of age.
(§1) LSL-Kras^+/LSL-G12D, LSL-Trp53^+/R172H, and Pdx1-Cre mice were bred by Dr. Kenneth P. Olive and co-workers. Chrm1KO mice (C57BL/6-Chrm1tm1 Stl/J, (M1RKO) mice^1 were purchased from the Jackson Laboratory. KC mice and KPC mice were crossed with M1RKO mice. In the vagotomy experiments, KC mice received pyloroplasty with or without vagotomy at 8 weeks, and some KC+VxPP mice were treated with bethanechol ([…] in drinking water) immediately after surgery and then sacrificed at 20 weeks. KPC mice in treatment studies were palpated weekly for tumors in the pancreas. Once a tumor was suspected, KPC mice were screened by VEVO 2100—Ultrasound Imaging System (FUJIFILM VisualSonics) for pancreatic cancer. KPC mice were treated with gemcitabine, given by i.p. injection 100 mg/kg biweekly, with or without bethanechol, when a tumor size of 3-5 mm was detected using ultrasound. Mice were sacrificed when the mice were moribund. NOD/SCID mice were implanted with Panc1 cells subcutaneously and sacrificed at 30 days after implantation. For liver metastatic experiments, WT type C57/B6 mice received a splenic injection of labeled Panc02 cells, followed by hemi-splenectomy. The mice were then divided into three groups. […] Mice were then sacrificed when moribund. At necropsy, hepatic metastases that could clearly be identified as tumor nodules on gross inspection were separated. All animal studies and procedures were approved by the IACUC committee at Columbia University. All mice were bred under specific pathogen free conditions. Comparisons were made with age- and sex-matched control animals.
5 μm paraffin embedded or PFA-fixed frozen sections were prepared for immunohistochemistry and immunofluorescence, respectively. For immunofluorescence, slides were washed with 1% Triton X-100 in PBS, rinsed and blocked for 30 min with 2% bovine serum albumin (BSA—Sigma-Aldrich). Primary antibodies and fluorophore-conjugated secondary antibodies were diluted in 2% BSA and incubated over night at 4° C. The following primary antibodies were used; Chrm1 (1:200 Santa Cruz), Ki67 (1:500 Abcam), p-EGFR (1:200 Abcam), and CD44 (1:200 BIO-RAD). For immunohistochemical staining, slides were deparaffinized in xylene and endogenous peroxidase was blocked by incubation with 3% hydrogen peroxide in methanol for visualization using the peroxidase reaction.

[1] = cited from earlier work
PDA patients = assay: Pilot feasibility study of bethanechol in patients with resectable PDA; type: in vivo, human
Experimental: Our ongoing pilot feasibility study assesses the impact of 1 week of a fixed dose of bethanechol on pharmacodynamics endpoints in resected pancreatic cancer specimens. […] Subjects receive 100 mg of bethanechol by mouth twice daily for 1 week, discontinuing bethanechol 24 hours prior to scheduled surgery. All subjects will be assessed for toxicity while receiving bethanechol, and for 30 days thereafter. The primary endpoint in the pilot study is a change in cell proliferation (Ki-67 index). […] We will compare gene expression profiles and regulatory networks between treated samples with matched controls in our dataset of >200 PDA, RNAseq analysis will be performed.

[2] = tested on: Kras^+/LSL-G12D mutant spheres; assay: 3D Matrigel sphere culture of Kras mutant (Ad-Cre) pancreatic acinar cells; type: cell-based, mouse
Experimental: Cholinergic stimulation could in theory promote cancer indirectly through effects on stromal cells, or directly through effects on pancreatic epithelial cells. To determine whether cholinergic stimulation promoted tumor development in part through muscarinic receptors on cancer cells, the sphere forming capacity of K-Ras^+/LSL-G12D mutant pancreatic acinar cells was assessed in a 3D Matrigel culture system, with or without muscarinic stimulation. K-Ras^+/LSL-G12D mutant spheres were generated from K-Ras^+/LSL-G12D pancreatic acinar cells by treatment with adenoviral delivered Cre (Ad-Cre).
3D cultures were performed as described previously (Wescott et al., 2009). Organoids were cultured for 5 days before analysis. Adenoviral delivered Cre (Ad-Cre) was added to the cultures and medium was changed after 12 hours. […] Sphere size and […] were analyzed using ImageJ software.
To determine whether cholinergic stimulation suppresses tumor development in part through specific muscarinic receptors on cancer cells, the sphere forming capacity of Kras^+/LSL-G12D pancreatic acinar cells in a 3D Matrigel culture system in the absence and presence of muscarinic agonists and antagonists was assessed. Kras^+/LSL-G12D mutant spheres were generated from Kras^+/LSL-G12D mice by delivery of an adenoviral Cre (Ad-Cre).
3D cultures were performed as described previously^18. Organoids were cultured for 5 days before analysis. Adenoviral delivered Cre (Ad-Cre) was added to the cultures and medium was changed after 12 hours. […] Sphere size and number were analyzed using ImageJ software.

Kras mutant Panc1 cells = assay: Ca2+ flux in pancreatic cancer cells; type: cell-based, human; details: preliminary studies
Panc1 cells = assay: Subcutaneous implantation of 25,000 pilocarpine-pretreated Panc1 cells into NOD/SCID mice; type: in vivo, mouse; details: 25,000 Panc1 cells pretreated with pilocarpine for 72 hours vs untreated Panc1 cells
Experimental: To address the possible parasympathetic effects on sternness, human pancreatic cancer cells (Panc1 and BxPC3) were treated with pilocarpine.
To address the possible parasympathetic effects on stemness, human pancreatic cancer cells (Panc1 and BxPC3) were treated with pilocarpine.
as §1

[3] = vagotomized KC mice, bethanechol treatment
[4] = day 5, pilocarpine 1 mM, scopolamine 10 μM, McN-34A 50 μM, pirenzepine 50 μM, vs controls

SMILES: CC(C[N+](C)(C)C)OC(N)=O (centres unmarked) [bethanechol, 2-[(aminocarbonyl)oxy]-N,N,N-trimethyl-1-propanaminium]
- M1R expression (KC mice; KC mice following vagotomy, bethanechol in drinking water): reduced
- PanIN area (KC mice; KC+VxPP mice, bethanechol 400 μg/ml in drinking water from 8 to 20 weeks, vs untreated KC+VxPP): significant reduction; also recorded: reduced
- pancreatic tumor (PDAC) incidence (KC mice; KC+VxPP mice, vs untreated KC+VxPP): reduced; also recorded: inhibits
- pancreatic tumor (PDAC) incidence (KC mice; KC+VxPP mice, vs untreated KC+VxPP, listed as Bethanechol): significant reduction; also recorded: significant decrease
- pancreatic CD44 expression (KC mice; KC+VxPP mice): significant decrease; also recorded: reduced
- pancreatic CD44 expression (KC mice; KC+VxPP mice, listed as Bethanechol): reduced
- area of inflammation (KC mice; vagotomized KC mice, bethanechol 400 μg/ml, vs KC+VxPP control group): significant reduction
- accelerated tumorigenesis / PanIN progression after vagotomy (KC phenotype) (KC mice; [3]): ameliorated; also recorded: suppresses; also recorded: restored the normal KC phenotype; also recorded: reduces
- expression of p-EGFR, p-PI3K and p-ERK1/2 (immunohistochemical staining) (KC mice; [3]): significantly suppressed
- systemic and splenic levels of TNFα, CD11b+ and F4/80+ pancreatic myeloid cells (KC mice; [3]): suppressed
- tumor-associated macrophages (TAM) increased by vagal denervation (KC mice; [3]): abolished
- accelerated tumorigenesis / PanIN progression after vagotomy (KC phenotype) (KC mice; vagotomized KC mice, bethanechol treatment, listed as Bethanechol): abrogate; also recorded: suppressed
- toxicity in treatment of xerostomia ([1]; cancer patients, 25 mg twice daily for several months): without any severe (Grade 3) toxicity
- side effects in treatment of xerostomia ([1]; cancer patients, up to 50 mg three times daily and 25 mg 3 times a day): did not identify any clinically significant side effects
- duration of action ([1]; human, in vivo): 6 h
- interactions with gemcitabine or nab-paclitaxel ([1]; human, in vivo): no reported interactions
- toxicity in treatment of xerostomia ([1]; oncology, doses up to 50 mg three times daily): without grade 3 toxicity or need for discontinuation
- toxicity of single doses ([1]; single doses up to 200 mg): only mild cholinergic toxicity
- plasma TNFα levels (PDA patients; PDA patients, bethanechol 100 mg twice daily for 1 week, preliminary pilot data): trend towards lower
- Ki-67, CD44, pERK and p-EGFR (IHC staining of PDA tissue) (PDA patients; bethanechol-treated patients compared to untreated patients): might lead to a decrease
- other cytokine levels such as ICAM-1 and MIF (PDA patients; plasma of a study patient, pre- vs post-treatment, cytokine antibody array): possible reductions

SMILES: CC[C@@H]1C(=O)OC[C@@H]1Cc1cncn1C [pilocarpine, (3S,4R)-3-ethyl-4-[(3-methylimidazol-4-yl)methyl]oxolan-2-one]
- number of spheres [2, 4]: significantly fewer; also recorded: reduced
- size of spheres [2, 4]: smaller
- sphere formation and growth of Kras mutant spheres ([2]; oncogenic K-Ras allele activated by adeno-Cre virus): significant inhibitory effect; also recorded: decrease; also recorded: suppresses
- Ca2+ flux (Kras mutant Panc1 cells): unable to stimulate
- tumor incidence / tumor initiation in NOD/SCID mice (Panc1 cells): significant reduction; also recorded: inhibited
- tumor volume / size in NOD/SCID mice (Panc1 cells): significant reduction
- tumor incidence / tumor initiation in NOD/SCID mice (Panc1 cells; listed as Pilocarpine): fewer
- tumor volume / size in NOD/SCID mice (Panc1 cells; listed as Pilocarpine): smaller
